The supplement of paper PMC10307832

What was measured:
Assay in all cases: relative viability (nuclei count vs DMSO), 5 days (fraction); higher = more cells survive
[1] = compound: CC1=C(C(=O)N2C=CSC2=N1)CCN3CCC(=C(C4=CC=CC=C4)C5=CC=C(C=C5)F)CC3 + C[C@@H](Oc1cc(-c2cnn(C3CCNCC3)c2)cnc1N)c1c(Cl)ccc(F)c1Cl [Crizotinib] (partner 1 µM)
Procedure, shortened: (§1)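 Lung cancer cell lines in 1536-well plates were dosed by pin tool the day after seeding, either with one drug alone or with a fixed anchor-drug dose plus five library-drug doses (not always all listed) in √10 steps. After 5 days, cells were fixed and their nuclei stained in one step (final 0.05% Triton X-100, 1% formaldehyde, 1 ug/ml Hoechst), then counted on 4× images. Relative viability is the nuclei count in treated wells divided by that in vehicle wells. Values are medians of duplicate plates.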

[2] = compound: CC1=C(C(=O)N2C=CSC2=N1)CCN3CCC(=C(C4=CC=CC=C4)C5=CC=C(C=C5)F)CC3 + CC(=O)Nc1cccc(-n2c(=O)n(C3CC3)c(=O)c3c(Nc4ccc(I)cc4F)n(C)c(=O)c(C)c32)c1 [Trametinib] (partner 0.02 µM)
Procedure, shortened: as §1

[3] = compound: CC1=C(C(=O)N2C=CSC2=N1)CCN3CCC(=C(C4=CC=CC=C4)C5=CC=C(C=C5)F)CC3 + N=C(N)NC(=N)NCCc1ccccc1 [Phenformin] (partner 250 µM)
Procedure, shortened: as §1

[4] = compound: CC1=C(C(=O)N2C=CSC2=N1)CCN3CCC(=C(C4=CC=CC=C4)C5=CC=C(C=C5)F)CC3 + COc1cccc2cc(-c3nc([C@H]4CC[C@H](C(=O)O)CC4)n4ncnc(N)c34)[nH]c12 [OSI-027] (partner 0.5 µM)
Procedure, shortened: as §1

Cell Line	relative viability ([1]; first compound 0.08 µM)	relative viability ([1]; first compound 0.253 µM)	relative viability ([1]; first compound 0.8 µM)	relative viability ([1]; first compound 2.53 µM)	relative viability ([1]; first compound 8 µM)	relative viability ([2]; first compound 0.08 µM)	relative viability ([2]; first compound 0.8 µM)	relative viability ([2]; first compound 2.53 µM)	relative viability ([2]; first compound 8 µM)	relative viability ([3]; first compound 0.08 µM)	relative viability ([3]; first compound 0.253 µM)	relative viability ([3]; first compound 0.8 µM)	relative viability ([3]; first compound 2.53 µM)	relative viability ([3]; first compound 8 µM)	relative viability ([4]; first compound 0.08 µM)	relative viability ([4]; first compound 0.253 µM)	relative viability ([4]; first compound 0.8 µM)	relative viability ([4]; first compound 2.53 µM)	relative viability ([4]; first compound 8 µM)	relative viability ([2]; first compound 0.253 µM)
NCI-H2405	0.817	0.788	0.871	0.858	0.725	0.711	0.676	0.742	0.464	0.373	0.366	0.399	0.375	0.332	0.664	0.614	0.677	0.624	0.606	
NCI-H3122	0.286	0.262	0.258	0.316	0.267	0.214	0.229	0.235	0.229	0.38	0.376	0.386	0.396	0.394	0.916	1.02	1.11	1.07	0.596	0.247
PC-3 [JPC-3]	1.02	0.984	1.15	1.1	0.919	0.645	0.834	0.822	0.664	0.49	0.451	0.454	0.525	0.495	0.783	0.662	0.831	0.772	0.633	
PC-14	0.919	0.907	0.875	1.13	0.716	0.523	0.927	1.61	0.476	0.624	0.558	0.518	0.661	0.296	0.529	0.981	1.04	1.17	0.507	0.984
RERF-LC-KJ	0.789	0.851	0.775	0.835	0.795	0.833	0.837	0.794	0.578	0.345	0.427	0.414	0.534	0.289	0.411	0.583	0.546	0.523	0.497	0.893
SK-LU-1	1.03	0.849	0.801	0.979	0.698	0.526	0.479	0.645	0.402	0.672	0.475	0.585	0.576	0.42	0.396	0.341	0.38	0.318	0.294	0.424
SK-MES-1	1.11	0.969	0.975	1.1	0.916	0.578	0.545	0.594	0.474	0.608	0.693	0.699	0.73	0.522	0.405	0.524	0.587	0.554	0.706	0.523
SW 1573	0.74	0.919	0.819	0.714	0.726	0.562	0.646	0.652	0.354		0.343	0.4	0.377	0.24		0.645	0.716	0.676	0.351	0.678
UMC-11	0.636	0.597	0.619	0.48	0.839	0.461	0.701	0.778	0.556	0.366	0.326	0.321	0.338	0.255	0.591	0.469	0.504	0.48	0.351	
